The source of these data is patent US9845323B2, “2-(1,3,4-oxadiazol-2-yl)-7-oxo-1,6-diazabicyclo[3.2.1 ]octane derivatives and their use as antibacterial agents” (WOCKHARDT LIMITED, priority 2014, dated 2017).

≈ marks a conversion by molar mass, not a printed value. Like-named read-outs stand apart in the source and are kept apart here. Where only a bound is given, the exact number is not on record here.

One assay concerns E. coli M 49. Nature of the assay: Agar dilution MIC (CLSI), compound alone. Format: cell-based. To be noted: Escherichia coli, M49. The procedure: (§1) The biological activity of representative compounds according to the invention against various bacterial strains was investigated. In a typical study, overnight grown bacterial cultures were diluted appropriately and inoculated on the agar media containing doubling dilutions of the test compounds. Observations for growth or no growth was performed after 16-20 hours of incubation at 35±2° C. in the ambient air. The overall procedure was performed as per Clinical and Laboratory Standards Institute (CLSI) recommendations, (Clinical and Laboratory Standards Institute (CLSI), Performance Standards for Antimicrobial Susceptibility Testing, 20th Informational Supplement, M 07-A9, Volume 32, No. 2, 2012). Molten Mueller Hinton Agar (BD, USA) containing serial dilutions of each antibacterial agent were poured on to the plates and allowed to solidify. Appropriate suspensions from the freshly grown cultures were prepared in normal saline so that about 10^4 CFU/spot of the organism was delivered on to the drug containing agar plates using automated multipoint inoculator (Mast, UK). The plates were incubated in Biochemical oxygen demand (BOD) incubator at 37° C. for 18 hours and then examined for growth.

In a further assay the test system is E. coli NCTC 13351. Nature of the assay: Agar dilution MIC (CLSI), compound alone. To be noted: Escherichia coli, NCTC13351. The class given is cell-based. The procedure:
as §1
(In agar dilution the substance is mixed into plates at graded concentrations.)

A further assay relates to K. pneumoniae S 21. Nature of the assay: Agar dilution MIC (CLSI), compound alone. The class given is cell-based. The settings on record: Klebsiella pneumoniae, S21. How it is done: as §1
The subject of another assay is E. coli 7 MP. The assay can be described thus: Agar dilution MIC (CLSI), compound alone. The class given is cell-based. To be noted: Escherichia coli. The procedure:
as §1

The next assay deals with P. aeruginosa PAO1. The assay can be described thus: Agar dilution MIC (CLSI), compound alone. Format: cell-based. To be noted: Pseudomonas aeruginosa. The procedure:
as §1

In assay [1] the test system is E. coli M 50. Nature of the assay: Agar dilution MIC (CLSI), compound alone. The class given is cell-based. The settings on record: Escherichia coli, M50. The procedure:
as §1

The test system of assay [2] is E. coli NCTC 13353 (CTX-M15, OXA-1). Nature of the assay: Agar dilution MIC (CLSI), compound alone. Format: cell-based. How it is done: as §1
The next assay has as its system E. coli NCTC 13352. The assay can be described thus: Agar dilution MIC (CLSI), compound alone. Format: cell-based. To be noted: Escherichia coli, NCTC13352. How it is done:
as §1

Another assay concerns K. pneumoniae B 77. The assay can be described thus: Agar dilution MIC (CLSI), compound alone. To be noted: Klebsiella pneumoniae, B77. Format: cell-based. The procedure: as §1
The subject of assay [3] is K. pneumoniae H521 (KPC, SHV, TEM). Nature of the assay: Agar dilution MIC (CLSI), compound alone. The class given is cell-based. How it is done: as §1
A further assay has as its system E. cloacae M 20. The assay can be described thus: Agar dilution MIC (CLSI), compound alone. The class given is cell-based. To be noted: Enterobacter cloacae, M20. The procedure: as §1
The test system of another assay is K. pneumoniae H 525. Nature of the assay: Agar dilution MIC (CLSI), compound alone. To be noted: Klebsiella pneumoniae, H525. The class given is cell-based. How it is done: as §1
The test system of the next assay is C. frundaii 58 MP. Nature of the assay: Agar dilution MIC (CLSI), compound alone. Format: cell-based. How it is done: as §1
Another assay deals with P. aeruginosa 2779. The assay can be described thus: Agar dilution MIC (CLSI), compound alone. To be noted: Pseudomonas aeruginosa. The class given is cell-based. The procedure:
as §1

The subject of the next assay is P. aeruginosa ATCC 27853. The assay can be described thus: Agar dilution MIC (CLSI), compound alone. Format: cell-based. To be noted: Pseudomonas aeruginosa, ATCC27853. The procedure:
as §1

In a further assay the test system is P. aeruginosa R 20. Nature of the assay: Agar dilution MIC (CLSI), compound alone. The class given is cell-based. The settings on record: Pseudomonas aeruginosa, R20. The procedure: as §1
Assay [4] addresses T1, Class D beta-lactamase OXA 23 (A baumannii NCTC 13301) (Acinetobacter baumannii, UniProt Q9L4P2).
T1 construct: preincubated mixture of crude enzyme and the compounds; endogenous in cells; host or cells: A. baumannii NCTC 13301 (crude enzyme preparation)
The assay can be described thus: Beta-lactamase enzyme inhibition (Nitrocefin, crude enzyme). Format: biochemical. The settings on record: A baumannii NCTC 13301 (OXA 23), Nitrocefin 100 μM. The procedure: (§2) Absorbance was measured at 485 nm by UV-spectrophotometer. The IC50 was calculated by plotting absorbance against concentration through Sigmoidal dose response curve using Graph Pad software.

The test system of assay [5] is Class C beta-lactamase CMY/DHA (E. coli M50). Described as above. Format: biochemical. The settings on record: Nitrocefin 100 μM. How it is done:
as §2

For assay [6], the target named is Class A beta-lactamase SHV 18 (K. pneumoniae ATCC 700603) (Klebsiella pneumoniae, UniProt P0AD64). Described as above. The class given is biochemical. How it is done: as §2
Sequence of Class A beta-lactamase SHV 18 (K. pneumoniae ATCC 700603) (P0AD64 22-286 limits assumed): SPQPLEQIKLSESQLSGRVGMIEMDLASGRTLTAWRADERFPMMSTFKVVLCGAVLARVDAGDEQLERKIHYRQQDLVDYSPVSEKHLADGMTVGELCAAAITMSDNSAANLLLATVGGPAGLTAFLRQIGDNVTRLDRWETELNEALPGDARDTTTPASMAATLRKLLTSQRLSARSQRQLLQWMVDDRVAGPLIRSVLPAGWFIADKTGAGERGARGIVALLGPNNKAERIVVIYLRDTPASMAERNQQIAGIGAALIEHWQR
Assay [7] relates to K. Pneomoniae S48 (NDM, SHV, TEM). The assay can be described thus: Agar dilution MIC (CLSI), compound alone. The class given is cell-based, K. pneumoniae. How it is done:
as §1

In assay [8] the test system is Multi Drug Resistant (MDR) Gram-negative bacterial strains. Nature of the assay: Antibacterial activity alone. The class given is cell-based. The settings on record: compounds used alone; compared with standards (imipenem, ceftazidime) or avibactam. The procedure:
as §1

Assay [9] relates to K. pneumoniae ATCC 700606. The assay can be described thus: Agar dilution MIC of Ceftazidime, alone or with fixed 4 μg/ml compound. The class given is cell-based. To be noted: Ceftazidime + compound fixed at 4 mcg/ml. The procedure:
(§3) Agar dilution MIC was carried out in Muller Hinton Agar (Difco, USA) according to the recommendations of CLSI (M07-A9). In short, the plates were poured with a range of doubling increasing concentration of Ceftazidime and fixed 4 μg/ml compound according to invention containing MHA. The freshly overnight grown cultures were diluted in physiological saline to deliver per spot 10^4 CFU. The plates were inoculated with a multipoint inoculator (Mast, UK) and incubated at 35° C. for 18 hours. […] Table-5 provides the result of combination MIC results.

A further assay has as its system E. coli NCTC 13353. The assay is described as above. The class given is cell-based. To be noted: Ceftazidime + compound fixed at 4 mcg/ml. The procedure:
as §3

For assay [10], the system named is E. coli M 50. Described as above. The class given is cell-based. The settings on record: Ceftazidime + compound fixed at 4 mcg/ml. How it is done: as §3
The next assay concerns Citrobactor spp 58 MP. The assay is described as above. Format: cell-based. The settings on record: Ceftazidime + compound fixed at 4 mcg/ml. The procedure: as §3
A further assay has as its system K. pneumoniae H521. Described as above. Format: cell-based. To be noted: Ceftazidime + compound fixed at 4 mcg/ml. The procedure: as §3

T1 sequence (Q9L4P2 18-273): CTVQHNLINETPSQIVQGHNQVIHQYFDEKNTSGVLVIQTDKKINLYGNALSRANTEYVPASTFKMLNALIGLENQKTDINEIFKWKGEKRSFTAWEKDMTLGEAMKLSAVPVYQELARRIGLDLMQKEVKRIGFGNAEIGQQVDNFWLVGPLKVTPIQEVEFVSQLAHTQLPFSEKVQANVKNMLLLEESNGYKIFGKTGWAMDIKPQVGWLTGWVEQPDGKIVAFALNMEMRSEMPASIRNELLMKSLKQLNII

Usually MIC stands for the smallest concentration in the dilution series that meets the test's criterion for growth inhibition. Low values mean a more susceptible organism, high ones a less susceptible organism. Usually IC50 stands for the midpoint of a concentration-inhibition curve. With `O=C1N2C[C@@H](CC[C@H]2c2nnc(Cc3ccccc3)o2)N1OS(=O)(=O)O` [Example 5, (2S,5R)-sulfuric acid mono-[2-(5-benzyl-[1,3,4]-oxadiazol-2-yl)-7-oxo-1,6-diaza-bicyclo[3.2.1]oct-6-yl] ester], the MIC with E. coli M 49 is greater than 32 µg/mL; in the assay on E. coli NCTC 13351 it was 16 µg/mL (≈ 42.1 µM); against K. pneumoniae S 21, greater than 32 µg/mL; against E. coli 7 MP it was 32 µg/mL (≈ 84.1 µM); in the assay with P. aeruginosa PAO1, greater than 32 µg/mL; against E. coli M 50 [1], 16 µg/mL (≈ 42.1 µM). The MIC in assay [2] (E. coli NCTC 13353, Table 3) is 8 µg/mL (≈ 21 µM); in assay [2] (Escherichia coli, NCTC13353), 8 µg/mL (≈ 21 µM); against E. coli NCTC 13352, 16 µg/mL (≈ 42.1 µM); in the assay with K. pneumoniae B 77, greater than 32 µg/mL; in assay [3] (K. pneumoniae H 521, Table 3), 32 µg/mL (≈ 84.1 µM); in [3] (Klebsiella pneumoniae), 32 µg/mL (≈ 84.1 µM). In addition, the MIC was greater than 32 µg/mL against E. cloacae M 20; 16 µg/mL (≈ 42.1 µM) with K. pneumoniae H 525; greater than 32 µg/mL against C. frundaii 58 MP; greater than 32 µg/mL in the assay with P. aeruginosa 2779; greater than 32 µg/mL with P. aeruginosa ATCC 27853; greater than 32 µg/mL in the assay with P. aeruginosa R 20. Moreover, 8 µg/mL (≈ 21 µM) was the least that counted as inhibitory in [7] (Klebsiella pneumoniae) (MIC). Further, the IC50 in assay [4] was 280 nM; in assay [5], 6 nM; in assay [6] (read-out: Beta-lactamase enzyme inhibition IC50, K. pneumoniae ATCC 700603 (SHV 18), Nitrocefin 100 μM) it was 33 nM. Moreover, in assay [8], the “Antibacterial activity (MIC values) in words” value is on record as “exhibited antibacterial activity in comparison to avibactam”.
As to `O=C1N2C[C@@H](CC[C@H]2c2nnc(CCc3ccccc3)o2)N1OS(=O)(=O)O` [Example 6, (2S,5R)-sulfuric acid mono-[2-(5-phenyl-ethyl-[1,3,4]-oxadiazol-2-yl)-7-oxo-1,6-diaza-bicyclo[3.2.1]oct-6-yl] ester], the MIC in assay [2] (E. coli NCTC 13353 (CTX-M15, OXA-1), compound alone, Table 2) is greater than 32 µg/mL; in [3] (K. pneumoniae H521 (KPC, SHV, TEM), compound alone, Table 2), greater than 32 µg/mL; in assay [7] (K. Pneomoniae S48 (NDM, SHV, TEM), compound alone, Table 2), greater than 32 µg/mL. For the same molecule, the IC50 in assay [4] was 220 nM; in assay [5], 4 nM; in [6] (K. pneumoniae ATCC 700603 (SHV 18), Nitrocefin 100 μM, read-out: Beta-lactamase enzyme inhibition IC50) it was 32 nM. Besides, the MIC of Ceftazidime in combination with the compound was 8 µg/mL in assay [9]; 0.5 µg/mL in the assay on E. coli NCTC 13353; 8 µg/mL in the assay on E. coli M 50 [10]; 4 µg/mL in the assay with Citrobactor spp 58 MP; greater than 32 µg/mL in the assay on K. pneumoniae H521.
